Experimental data taken from patent US4230712A, “7-Methyl-8β-lower alkyl or 7-methyl-8-lower alkyl B/C cis or trans morphinan-6-one compounds and therapeutic method of treating pain employing them” (Miles Laboratories, Inc., priority 1978, dated 1980).
Entries after “also recorded” stand apart in the source; their conditions may differ. Counter-ions that a name gives are not always drawn. Like-named read-outs stand apart in the source and are kept apart here.

Experiments:
rats = experiment: narcotic antagonist activity, modified rat tail flick test against morphine; type: in vivo, male albino Wistar rats; set-up: AD50: unit not given here; settings: for analgesic (agonist)/narcotic antagonist activity profile / narcotic antagonist activity: in words; for narcotic antagonist potency relative to TR-5222: more potent than TR-5222 by a factor; for AD50: rat tail flick, dose inhibiting the morphine (ED80 dose s.c.) effect by 50%, IA @ dose = inactive at that dose
Procedure: (B) Narcotic antagonist activity in rats (modified rat tail flick test).
TEST B. EVALUATION OF NARCOTIC ANTAGONIST ACTIVITY
The narcotic antagonist effects of test compounds were determined by a modification of the rat tail flick procedure of Harris and Pierson (J. Pharmacol. Exp. Ther. 143:141 [1964]).
Male albino Wistar rats (100-120 g) were used for this study. A rat's tail is so placed so as to cover a photocell. Heat is applied by a lamp in a reflector with a timer being connected to the lamp and photocell so that the timer goes on when the light is turned on and is turned off when the photocell is uncovered. A rheostat, incorporated into a heating lamp is used to adjust the intensity of the light falling on the tail of the rat such that the rat's control reaction time is from two to four seconds. Animals with a control reaction time outside this range are rejected. The rheostat adjustment is made only if a significant proportion (more than 2 out of every 10 rats) of the reaction times are outside the range of two to four seconds. Groups of five rats were used each time, and two control times were determined at 60 and 30 minutes prior to subcutaneous injection of the drug.
Thirty minutes after the last control run the test drug was given intraperitoneally. This was followed ten minutes later by an ED80 dose of morphine subcutaneously. The animals were retested at 20 minutes after the morphine injection. Control animals were given vehicle and morphine only. The data were calculated as follows: [formula]
The data were plotted on log-probit paper and AD50 values, i.e., the dose required to inhibit the morphine effect by 50% within 95% confidence limits, were determined by the method of Litchfield and Wilcoxon.

mice = experiment: acetic acid mouse writhing test (analgesic effect, s.c.); type: in vivo, male CD-1 mice; settings: for analgesic potency relative to TR-5222: more potent than TR-5222 by a factor; for ED50: mouse acetic acid writhing, s.c., dose reducing the number of writhes by 50%, IA @ dose = inactive at that dose; for analgesic activity: in words; for duration of action: footnote ** to the ED50 value
Procedure: (A) Analgesic effects upon mice (acetic acid writhing test).
TEST A. ACETIC ACID MOUSE WRITHING TEST
The analgesic effects of test compounds were determined in mice by use of the acetic acid writhing test described by B. J. R. Whittle, Brit. J. Pharmacol., 22:246 (1964). In this test at least three groups of five male CD-1 mice (18-22 g) each were given subcutaneous doses of the test drug dissolved in either distilled water or distilled water acidified with HCl depending on the solubility of the compound. In all cases, 0.4 milliliter of a 0.5% V/V acetic acid in distilled water solution was administered intraperitoneally 15 minutes post drug. The number of writhes in a 20 min. interval beginning 5 minutes after the acetic acid injection were determined and compared with the number of writhes in control groups which had received only acetic acid.
Percent inhibition of writhing was calculated as: [formula]
The ED50 dose, i.e., the dose required to reduce the number of writhes by 50%, was determined graphically from a plot of % inhibition as a probit versus log dose. Confidence limits of 95% were calculated on the basis of those results falling in the range 16-84% inhibition. See Litchfield, J. T. and Wilcoxon, F., J. Pharmacol. Exp. Ther., 96, 99-113, (1949).

[1] = conclusion from Tests A and B, Hydrochloride

Row | SMILES | analgesic (agonist)/narcotic antagonist activity profile (rats; conclusion from Tests A and B) | AD50 (rats) | ED50 (mice; sc, read-out: ED50) [mg/kg] | narcotic antagonist activity (rats) | analgesic activity (mice) | further results
1 | C[C@H]1[C@@H]2[C@H]3Cc4ccc(O)cc4[C@@]2(CCN3CC2CC2)CC(=O)[C@@H]1C [TR-5343, 17-Cyclopropylmethyl-7β,8α-dimethyl-3-hydroxy-isomorphinan-6-one Hydrobromide] | mixed analgesic and narcotic antagonist activity | 0.43 | 1.89 |  |  | narcotic antagonist potency relative to TR-5222 (rats): approximately two; narcotic antagonist potency relative to TR-5196 (rats; vs geometric isomer TR-5196): somewhat less potent; analgesic potency relative to TR-5222 (mice): approximately two; analgesic potency relative to TR-5196 (mice; times as potent as geometric isomer TR-5196): approximately 4 times
2 | COc1ccc2c(c1)[C@]13CCN(CC4CC4)[C@H](C2)[C@@H]1[C@@H](C)CC(=O)C3 [TR-5119, 17-Cyclopropylmethyl-3-Methoxy-8β-Methylmorphinan-6-one] |  | 1.45 | 0.24 | good activity | good activity | 
3 | Cl.O=C1CC[C@H]2[C@H]3Cc4ccc(O)cc4[C@@]2(CCN3CC2CCC2)C1 [TR-5153, 17-Cyclobutylmethyl-3-hydroxymorphinan-6-one Hydrochloride, reference compound] |  | IA @ 10 | 0.017 |  |  | analgesic (agonist)/narcotic antagonist activity profile (rats; [1]): pure agonist; also recorded: pure analgesic
4 | COc1ccc2c(c1)[C@]13CCN(CC4CC4)[C@H](C2)[C@@H]1[C@@H](C)[C@H](C)C(=O)C3 [TR-5188, 17-Cyclopropylmethyl-7α,8β-dimethyl-3-methoxy-morphinan-6-oneHydrochloride] | mixed analgesic/narcotic antagonist | 4.7 | 1.03 |  |  | 
5 | O=C1CC[C@H]2[C@H]3Cc4ccc(O)cc4[C@@]2(CCN3CC2CC2)C1 [TR-5160, 17-Cyclopropylmethyl-3-hydroxy morphinan-6-one, reference compound] |  | 2.3 | 1.02 |  |  | 
6 | CCC[C@H]1CC(=O)C[C@]23CCN(CC4CCC4)[C@H](Cc4ccc(O)cc42)[C@H]13.Cl [TR-5204, 17-Cyclobutylmethyl-3-hydroxy-8β-n-propylmorphinan-6-one Hydrochloride] | mixed analgesic/narcotic antagonist | 3.10 | 0.43 |  |  | narcotic antagonist potency relative to TR-5223 (rats; vs TR-5223): substantially more potent; analgesic potency relative to TR-5223 (mice; vs TR-5223): substantially more potent
7 | CC[C@@H]1[C@H]2[C@H]3Cc4ccc(O)cc4[C@@]2(CCN3CC2CCC2)CC(=O)[C@H]1C [TR-5333, 17-Cyclobutylmethyl-8β-ethyl-3-hydroxy-7α-methyl-morphinan-6-one] | both analgesic and narcotic antagonist activity | 1.95 | 3.3 |  |  | 
8 | COc1ccc2c(c1)[C@]13CCN(CC4CCC4)[C@H](C2)[C@H]1[C@H](C)[C@@H](C)C(=O)C3 [TR-5332, 17-Cyclobutylmethyl-7β,8α-dimethyl-3-methoxy-isomorphinan-6-one Hydrochloride] |  | > 10 | > 10 |  |  | 
9 | COc1ccc2c(c1)[C@]13CCN(CC4CC4)[C@H](C2)[C@H]1[C@H](C)[C@@H](C)C(=O)C3 [TR-5331, 17-Cyclopropylmethyl-7β,8α-dimethyl-3-methoxy-isomorphinan-6-one Hydrochloride] |  | > 10 | > 10 | essentially inactive | essentially inactive | 
10 | COc1ccc2c(c1)[C@]13CCN(CC4CCC4)[C@H](C2)[C@@H]1CCC(=O)C3.Cl [TR-5148, 17-Cyclobutylmethyl-3-methoxymorphinan-6-one Hydrochloride, reference compound] |  | IA @ 10 | 0.22 | does not exhibit activity as a narcotic antagonist | potent analgesic | 
11 | C[C@H]1CC(=O)C[C@]23CCN(CC4CCC4)[C@H](Cc4ccc(O)cc42)[C@H]13.Cl [TR-5130, 17-Cyclobutylmethyl-3-hydroxy-8β-methylmorphinan-6-one Hydrochloride] | mixed agonist/antagonist activity | 1.05 | 0.11 |  |  | 
12 | O=C1CC[C@@H]2[C@H]3Cc4ccc(O)cc4[C@@]2(CCN3CC2CC2)C1 [TR-5222, 17-Cyclopropylmethyl-3-hydroxy-isomorphinan-6-one Hydrochloride, reference compound] | mixed analgesic and narcotic antagonist activity | 0.78 | 3.11 |  |  | duration of action (mice): short acting
13 | CC[C@H]1[C@@H]2[C@H]3Cc4ccc(O)cc4[C@@]2(CCN3CC2CCC2)CC(=O)[C@@H]1C [TR-5370, 17-Cyclobutylmethyl-8α-ethyl-3-hydroxy-7β-methyl-isomorphinan-6-one Hydrochloride] |  | > 10 |  | essentially inactive | essentially inactive | ED50 (mice): IA @ 10
14 | C[C@@H]1[C@H]2[C@H]3Cc4ccc(O)cc4[C@@]2(CCN3CC2CCC2)CC(=O)[C@H]1C [TR-5195, 17-Cyclobutylmethyl-7α,8β-dimethyl-3-hydroxymorphinan-6-one] | analgesic and narcotic antagonist activity | 2.0 | 0.78 |  |  | 
15 | CC[C@H]1CC(=O)C[C@]23CCN(CC4CCC4)[C@H](Cc4ccc(O)cc42)[C@H]13.Cl [TR-5200, 17-Cyclobutylmethyl-8β-ethyl-3-hydroxy-morphinan-6-one Hydrochloride] |  | 0.32 | 0.21 | potent activity | potent activity | 
16 | C[C@@H]1[C@H]2[C@H]3Cc4ccc(O)cc4[C@@]2(CCN3CC2CC2)CC(=O)[C@H]1C [TR-5196, 17-Cyclopropylmethyl-7α,8β-dimethyl-3-hydroxy-morphinan-6-one] |  | 0.12 | 7.8 |  |  | 
17 | O=C1CC[C@@H]2[C@H]3Cc4ccc(O)cc4[C@@]2(CCN3CC2CCC2)C1 [TR-5223, 17-Cyclobutylmethyl-3-hydroxy-isomorphinan-6-one Hydrochloride, reference compound] |  | 5.0 | 0.94 |  |  | analgesic (agonist)/narcotic antagonist activity profile (rats; [1]): mixed agonist/antagonist activity; also recorded: mixed analgesic/narcotic antagonist activity; mixed agonist/antagonist activity relative to TR-5130 (rats; vs TR-5130, conclusion from Tests A and B): substantially less than that of TR-5130; narcotic antagonist potency relative to TR-5200 (rats; vs TR-5200): significantly less potent; analgesic potency relative to TR-5200 (mice; vs TR-5200): significantly less potent
18 | COc1ccc2c(c1)[C@]13CCN(CC4CC4)[C@H](C2)[C@@H]1CCC(=O)C3 [TR-5152, 17-Cyclopropylmethyl-3-methoxymorphinan-6-one Hydrochloride, reference compound] |  | 5.4 | 0.24 |  |  | 
19 | C[C@@H]1C[C@@H]2[C@H]3Cc4ccc(O)cc4[C@@]2(CCN3CC2CC2)CC1=O [TR-5225, 17-Cyclopropylmethyl-3-hydroxy-7β-methyl-isomorphinan-6-one Hydrobromide] |  | 0.48 | 0.72 |  |  | narcotic antagonist potency relative to TR-5222 (rats): approximately 2; narcotic antagonist potency relative to TR-5205 (rats; vs TR-5205): approximately twice as potent; duration of action (mice): short acting; analgesic potency relative to TR-5222 (mice): greater than four; analgesic potency relative to TR-5205 (mice; vs TR-5205): much more potent
20 | COc1ccc2c(c1)[C@]13CCN(CC4CCC4)[C@H](C2)[C@@H]1[C@@H](C)CC(=O)C3.Cl [TR-5132, 17-Cyclobutylmethyl-3-methoxy-8β-methylmorphinan-6-one Hydrochloride] |  | 6.4 | 0.54 | good activity | good activity | 
